Data published in patent US20160083397A1, “PARTHENOLIDE DERIVATIVES AND THEIR MODULATION OF PROCESSES CONTROLLED BY REGULATED TRANSLATION” (THE BOARD OF TRUSTEES OF THE UNIVERSITY OF ARKANSAS, priority 2013, published 2016).

What was measured:
[1] = test system: Xenopus oocytes; assay: Xenopus oocyte maturation assay; assay type: cell-based; details: for Xenopus Oocyte Maturation Assay, With Progesterone: test compound 100 μM, progesterone 2 μg/mL, inhibitor = slowed rate of progesterone-dependent GVBD by 20% or more
Description: An in vivo Xenopus oocyte maturation assay was used to screen the compounds for their ability to modulate the activity of cell cycle control proteins, mRNA translational control proteins, and/or proteins involved in signaling pathways. In this assay, oocyte maturation (or cell cycle progression) is monitored phenotypically using an image capture system. Oocyte maturation is correlated with the appearance of a white spot at the animal pole of the darkly pigmented animal hemisphere of the oocyte. The white spot appears because the germinal vesicle (i.e., the large nucleus of the oocyte) migrates to the animal pole prior to meiotic germinal vesicle breakdown (GVBD).
Immature stage VI Xenopus oocytes were transferred to wells of a flat bottom 96-well plate containing about 178 μL of L15 culture media. The oocytes were transferred using wide mouth 200 μL pipette tips with minimal transfer of culture medium (e.g., about 20 μL). Generally, the oocytes oriented with the pigmented animal hemisphere facing up due to the higher density of the yolk-containing vegetal hemisphere. Incorrectly orientated oocytes were gently manipulated using a drawn-out capillary tube to rotate them into the correct orientation.
Forty-four test compounds were dissolved in DMSO to make 100× stock solutions. The test compounds were added to the appropriate wells at a final concentration of 100 μM (and 1% DMSO). Control oocytes were exposed to 1% DMSO only (generally the first and last wells of a plate contained the untreated, control oocytes). Sixteen hours later, progesterone was added to each well to stimulate progesterone-dependent oocyte maturation. For this, 2 μL of 1000× stock solution (2 mg/mL in ethanol) was added to the appropriate wells to yield a final concentration of 2 μg/mL. The rate of maturation in the control oocytes (i.e., those in the first and last wells) served as an intra-assay control for time taken for progesterone addition across the multi-well plate.
The 96-well plate was imaged from above (i.e., top-down) using a 36-megapixel Nikon D800 SLR camera with an AF Micro Nikkor 60 mm, f/2.8 lens, mounted on a dedicated copy stand (with adjustable flanking light sources). The plate was imaged prior to and after addition of progesterone (i.e., images were taken at regular intervals over a period of 7 hours). The high resolution images were digitally zoomed after capture to analyze the maturation status of oocytes in individual wells of the plate. Test compounds that slowed the rate of progesterone-dependent GVBD by 20% or more were classified as inhibitors (assessed relative to the time 50% of the population of control, vehicle treated oocytes had undergone GVBD (GVBD50)).
To determine whether the test compounds were able to activate oocyte maturation in a progesterone-independent manner, oocytes were incubated in the presence of the test compound (dissolved in DMSO) or DMSO only. The oocytes were imaged at regular intervals for the evidence of GVBD, or subsets of oocytes were removed at predetermined times and the activation status of key cell cycle control proteins (e.g., pMAP kinase, pCcd2, etc.) was analyzed by Western blotting. For example, activation of pMAP kinase is associated with increased phosphorylation whereas activation of pCdc2 is associated with decreased phosphorylation. Compounds were classified as an activator if they were able to induce GVBD in the absence of added progesterone. Further, compounds were classified as accelerators if they accelerated the rate of progesterone-stimulated GVBD, but were unable to induce GVBD in the absence of progesterone. The criteria for test compounds to be considered accelerators is that they must increase the rate of progesterone-dependent GVBD by 20% or more at one dose (assessed relative to the time 50% of the population of control, vehicle treated oocytes had undergone GVBD (GVBD50)).

[2] = test system: MCF-7 cells; assay: Mammosphere formation, MCF-7; assay type: cell-based; details: compound present first 3 days, scored day 14 (P2), 50, 5 and 0.5 μM
Description: Mammosphere culture growth presents a useful indicator of the presence of breast cancer cells with stem cell-like properties. Breast cancer cell lines grown as mammospheres (under non-adherent plating conditions) recapitulate the three-dimensional organization of tumors. Importantly, assessment of stem cell self-renewal capacity can be achieved through dispersion of mammospheres to single cells and subsequent limited dilution replating. To determine whether PNR-5-46, PNR-5-41, or JVM-20 inhibited mammosphere formation in this system, […], and then cultured in the absence of the test compound. At day 7, mammospheres were collected, dispersed to single cells and replated at limiting dilution (P1). Spheroids were scored at day 14 (P2). Mammosphere forming units (MFUs) are defined as spheroid bodies >100 μm (MCF-7 cells) or >65 μm (MDA MB231 cells) diameter after 7 (P1) or 14 (P2) days growth in non-adherent culture.

[3] = test system: neuroblastoma cell line SHSY5Y; assay: Neurosphere formation, SHSY5Y; assay type: cell-based; details: lowest dose tested 0.5 μM
Protocol: (§1) The activity of the three test compounds to inhibit neurosphere formation was also tested in a neuroblastoma cell line SHSY5Y and a glioblastomoa cell line U87. All three compounds attenuated neurosphere formation in both cell lines, to varying degrees of efficacy (FIG. 2A,B). […] None of the compounds affected cell viability.

[4] = test system: glioblastomoa cell line U87; assay: Neurosphere formation, U87; assay type: cell-based; details: lowest dose tested 0.5 μM
Protocol: as §1

With “13-(4-aminophenyl)parthenolide [PNR-5-41]” the “Xenopus Oocyte Maturation Assay, With Progesterone” value [1] was “Inhibitor”, the “mammosphere formation relative to DMSO-treated control cells” value [2] was “did not” and the “neurosphere formation / stem cell self-renewal” value [3] was “Significant inhibition”. For the same molecule, the “neurosphere formation / stem cell self-renewal” value [4] was “Significant inhibition”.
In the case of `C/C1=C\CC[C@@]2(C)O[C@H]2[C@H]2OC(=O)[C@@H](CNc3nc4ccccc4[nH]3)[C@@H]2CC1` [JVM-9, 13-(2-aminobenzimidazole)parthenolide], the “Xenopus Oocyte Maturation Assay, Without Progesterone” value ([1]; no progesterone, activator = able to induce GVBD in the absence of added progesterone) is reported as “Activator”.
With `CC1=CCCC2(C)OC2C2OC(=O)C(CNCCN3CCOCC3)C2CC1` (stereo not shown) [JVM-11, 13-(aminoethylmorpholino)parthenolide] the “Xenopus Oocyte Maturation Assay, With Progesterone” value [1] was “Inhibitor”.
`C[C@@]12CCC=C(CO)C3C[C@H]4/C(=C\c5ccccc5)C(=O)O[C@@H]4[C@@]31O2` (stereo partly shown) gave a melting point of 115 to 117 °C.
